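Each compound was tested at five concentrations against cells in 96-well plates for 48 hours. Definition used: TGI = concentration required for complete inhibition of growth.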
What was measured:
Assay in all cases: inhibition of tumour cell growth, NCI panel, 48 h
[1] = system: PC-3 prostate
[2] = system: MDA-MB-231 breast
[3] = system: HCT-116 colon
[4] = system: NCI-H460 lung
[5] = system: BT-549 breast
[6] = system: SK-MEL-2 melanoma
[7] = system: A549 NSCLC
[8] = system: HCT-15 colon
[9] = system: UACC-62 melanoma
[10] = system: LOX IMVI melanoma
[11] = system: UO-31 renal
[12] = system: UACC-257 melanoma
[13] = system: ACHN renal
[14] = system: HOP-92 NSCLC
[15] = system: U251 CNS
[16] = system: OVCAR-5 ovarian
[17] = system: SK-MEL-28 melanoma
[18] = system: 786-0 renal
[19] = system: RPMI-8226 leukemia
[20] = system: EKVX NSCLC
[21] = system: SF-539 CNS
[22] = system: TK-10 renal
[23] = system: SK-MEL-5 melanoma
[24] = system: HOP-62 NSCLC
[25] = system: DU-145 prostate
[26] = system: KM12 colon
[27] = system: IGROV1 ovarian
[28] = system: MDA-N
[29] = system: SNB-19 CNS
[30] = system: SNB-75 CNS
[31] = system: HS 578T breast
[32] = system: T-47D breast
[33] = system: RXF 393 renal
[34] = system: SW-620 colon
[35] = system: NCI-H522 lung
[36] = system: SN12C renal
[37] = system: SK-OV-3 ovarian
[38] = system: A498 renal
[39] = system: MOLT-4 leukemia
[40] = system: SR leukemia
[41] = system: OVCAR-3 ovarian
[42] = system: SF-295 CNS
[43] = system: HL-60(TB) leukemia
[44] = system: MCF7 breast
[45] = system: CAKI-1 renal
[46] = system: CCRF-CEM leukemia
[47] = system: MDA-MB-435
[48] = system: M14 melanoma
[49] = system: COLO 205 colon
[50] = system: OVCAR-8 ovarian
[51] = system: HCC-2998 colon
[52] = system: NCI-H226 lung
[53] = system: OVCAR-4 ovarian
[54] = system: MALME-3M melanoma
[55] = system: NCI-H23 lung
[56] = system: NCI/ADR-RES ovarian
[57] = system: HT29 colon
[58] = system: SF-268 CNS
[59] = system: K-562 leukemia

O=C1COc2cccnc2N1CCCCO
TGI [1]: > 100 µM | TGI [2]: > 100 µM | TGI [3]: > 100 µM | TGI [4]: > 100 µM | TGI [5]: > 100 µM | TGI [6]: > 100 µM | TGI [7]: > 100 µM | TGI [8]: > 100 µM | TGI [9]: > 100 µM | TGI [10]: > 100 µM | TGI [11]: > 100 µM | TGI [12]: > 100 µM | TGI [13]: > 100 µM | TGI [14]: > 100 µM | TGI [15]: > 100 µM | TGI [16]: > 100 µM | TGI [17]: > 100 µM | TGI [18]: > 100 µM | TGI [19]: > 100 µM | TGI [20]: > 100 µM | TGI [21]: > 100 µM | TGI [22]: > 100 µM | TGI [23]: > 100 µM | TGI [24]: > 100 µM | TGI [25]: > 100 µM | TGI [26]: > 100 µM | TGI [27]: > 100 µM | TGI [28]: > 100 µM | TGI [29]: > 100 µM | TGI [30]: > 100 µM | TGI [31]: > 100 µM | TGI [32]: > 100 µM | TGI [33]: > 100 µM | TGI [34]: > 100 µM | TGI [35]: > 100 µM | TGI [36]: > 100 µM | TGI [37]: > 100 µM | TGI [38]: > 100 µM | TGI [39]: > 100 µM | TGI [40]: > 100 µM | TGI [41]: > 100 µM | TGI [42]: > 100 µM | TGI [43]: > 100 µM | TGI [44]: > 100 µM | TGI [45]: > 100 µM | TGI [46]: > 100 µM | TGI [47]: > 100 µM

N#C[C@H](c1ccccn1)c1nc2ccccc2nc1Cl
TGI [48]: > 100 µM | TGI [49]: > 100 µM | TGI [1]: > 100 µM | TGI [2]: > 100 µM | TGI [3]: > 100 µM | TGI [4]: > 100 µM | TGI [5]: > 100 µM | TGI [6]: > 100 µM | TGI [7]: > 100 µM | TGI [8]: > 100 µM | TGI [50]: > 100 µM | TGI [9]: > 100 µM | TGI [51]: > 100 µM | TGI [52]: > 100 µM | TGI [11]: > 100 µM | TGI [12]: > 100 µM | TGI [53]: > 100 µM | TGI [13]: > 100 µM | TGI [14]: > 100 µM | TGI [15]: > 100 µM | TGI [16]: > 100 µM | TGI [17]: > 100 µM | TGI [18]: > 100 µM | TGI [19]: > 100 µM | TGI [20]: > 100 µM | TGI [21]: > 100 µM | TGI [54]: > 100 µM | TGI [55]: > 100 µM | TGI [23]: > 100 µM | TGI [24]: > 100 µM | TGI [26]: > 100 µM | TGI [27]: > 100 µM | TGI [28]: > 100 µM | TGI [56]: > 100 µM | TGI [29]: > 100 µM | TGI [30]: > 100 µM | TGI [31]: > 100 µM | TGI [32]: > 100 µM | TGI [33]: > 100 µM | TGI [34]: > 100 µM | TGI [35]: > 100 µM | TGI [36]: > 100 µM | TGI [57]: > 100 µM | TGI [37]: > 100 µM | TGI [38]: > 100 µM | TGI [39]: > 100 µM | TGI [40]: > 100 µM | TGI [41]: > 100 µM | TGI [42]: > 100 µM | TGI [43]: > 100 µM | TGI [44]: > 100 µM | TGI [45]: > 100 µM | TGI [46]: > 100 µM | TGI [47]: > 100 µM

[N-]=[N+]=Nc1c([N+](=O)[O-])c(=O)n(-c2ccccc2)c2ccccc12
TGI [48]: 73.1 µM | TGI [49]: 42.3 µM | TGI [1]: 83.9 µM | TGI [2]: 59.2 µM | TGI [3]: 51.3 µM | TGI [4]: > 100 µM | TGI [6]: 52.5 µM | TGI [7]: > 100 µM | TGI [8]: 64.6 µM | TGI [50]: 48.9 µM | TGI [9]: 59 µM | TGI [51]: > 100 µM | TGI [52]: 96.9 µM | TGI [58]: 59.6 µM | TGI [10]: 43.9 µM | TGI [11]: 32.2 µM | TGI [12]: > 100 µM | TGI [53]: 49.4 µM | TGI [13]: 85.5 µM | TGI [14]: 86.9 µM | TGI [15]: 49.3 µM | TGI [16]: > 100 µM | TGI [17]: 80.5 µM | TGI [18]: 43.4 µM | TGI [19]: 56.2 µM | TGI [20]: 64.5 µM | TGI [21]: 47.1 µM | TGI [54]: 35 µM | TGI [22]: 44.2 µM | TGI [55]: 60.7 µM | TGI [23]: 59.5 µM | TGI [24]: > 100 µM | TGI [25]: > 100 µM | TGI [26]: > 100 µM | TGI [27]: 88.4 µM | TGI [28]: 83.2 µM | TGI [56]: 79.7 µM | TGI [29]: > 100 µM | TGI [30]: 68.1 µM | TGI [31]: 72.1 µM | TGI [32]: > 100 µM | TGI [33]: 38.9 µM | TGI [34]: 58.4 µM | TGI [35]: > 100 µM | TGI [36]: 62.9 µM | TGI [57]: > 100 µM | TGI [37]: > 100 µM | TGI [59]: 64.8 µM | TGI [38]: > 100 µM | TGI [39]: 59.1 µM | TGI [40]: 82.6 µM | TGI [41]: 22.7 µM | TGI [42]: 95.5 µM | TGI [44]: 67 µM | TGI [45]: 56.3 µM | TGI [46]: 92.4 µM | TGI [47]: 47 µM

O=C(O)CCCc1nc2c(n1Cc1ccccc1)C(=O)c1ccccc1C2=O
TGI [48]: 20.6 µM | TGI [49]: > 100 µM | TGI [2]: > 100 µM | TGI [3]: > 100 µM | TGI [4]: > 100 µM | TGI [6]: 52.9 µM | TGI [7]: > 100 µM | TGI [8]: > 100 µM | TGI [50]: > 100 µM | TGI [9]: > 100 µM | TGI [51]: > 100 µM | TGI [58]: > 100 µM | TGI [10]: > 100 µM | TGI [11]: > 100 µM | TGI [12]: 80.1 µM | TGI [53]: 77.8 µM | TGI [13]: > 100 µM | TGI [14]: > 100 µM | TGI [15]: > 100 µM | TGI [16]: > 100 µM | TGI [17]: > 100 µM | TGI [18]: > 100 µM | TGI [19]: 68.8 µM | TGI [20]: > 100 µM | TGI [21]: > 100 µM | TGI [54]: 47 µM | TGI [22]: > 100 µM | TGI [55]: > 100 µM | TGI [25]: > 100 µM | TGI [26]: > 100 µM | TGI [27]: > 100 µM | TGI [28]: 67.1 µM | TGI [56]: > 100 µM | TGI [29]: > 100 µM | TGI [31]: > 100 µM | TGI [32]: > 100 µM | TGI [34]: > 100 µM | TGI [35]: > 100 µM | TGI [36]: > 100 µM | TGI [37]: > 100 µM | TGI [59]: > 100 µM | TGI [38]: > 100 µM | TGI [39]: > 100 µM | TGI [40]: > 100 µM | TGI [41]: 74.7 µM | TGI [42]: 86.1 µM | TGI [43]: 88.3 µM | TGI [44]: > 100 µM | TGI [45]: > 100 µM | TGI [46]: 43.8 µM
